Laboratory results taken from PMC9276671, “A first-in-human Phase I dose-escalation trial of the novel therapeutic peptide, ALM201, demonstrates a favourable safety profile in unselected patients with ovarian cancer and other advanced solid tumours” (British Journal of Cancer, 2022).
No end group written: not given here.

Test: Plasma pharmacokinetics of ALM201 in Phase I patients (validated LC-MS/MS, Phoenix WinNonlin)
Details: for AUC(0-t): AUC0-t; for AUC(0-t) / Cmax: Gmean (CV); for level at 0.25 h: day 1 cycle 1, 0.25 h after dosing; for level at 0.75 h: day 1 cycle 1, 0.75 h after dosing; for Tmax: median
[1] = cycle 1, excluding patient 03.012
[2] = human, plasma, sc, 10 mg, 10 mg SC, day 1 cycle 1, n = 1, plasma LC-MS/MS
[3] = human, plasma, sc, 10 mg, 10 mg SC, day 3 cycle 1, n = 1, plasma LC-MS/MS
[4] = human, plasma, sc, 10 mg, 10 mg SC, day 18 cycle 1, n = 1, plasma LC-MS/MS
[5] = human, plasma, sc, 10 mg, 10 mg SC, day 18 cycle 2, n = 1, plasma LC-MS/MS
[6] = human, plasma, sc, 10 mg, 10 mg SC, day 18 cycle 4, n = 1, plasma LC-MS/MS
[7] = human, plasma, sc, 10 mg, 10 mg SC, day 18 cycle 6, n = 1, plasma LC-MS/MS
[8] = human, plasma, sc, 10 mg, Plasma concentration, geometric mean (CV%), 10 mg SC, n = 1, LC-MS/MS
[9] = human, plasma, sc, 20 mg, 20 mg SC, day 1 cycle 1, n = 1, plasma LC-MS/MS
[10] = human, plasma, sc, 20 mg, 20 mg SC, day 3 cycle 1, n = 1, plasma LC-MS/MS
[11] = human, plasma, sc, 20 mg, 20 mg SC, day 18 cycle 1, n = 1, plasma LC-MS/MS
[12] = human, plasma, sc, 20 mg, 20 mg SC, day 18 cycle 2, n = 1, plasma LC-MS/MS
[13] = human, plasma, sc, 20 mg, Plasma concentration, geometric mean (CV%), 20 mg SC, n = 1, LC-MS/MS

In the case of IRQQPRDPPTETLELEVSPDPAS [ALM201], the “Plasma concentration, geometric mean (CV%)” value (“Plasma concentration … (CV%)” for short) (10 mg SC, day 1 cycle 1, 4 h after dosing, n = 1, LC-MS/MS) is reported as “NQ (not quantifiable (less than assay limit of quantification of 100 ng/mL))”, the “Plasma concentration … (CV%)” value (10 mg SC, day 1 cycle 1, 5 h after dosing, n = 1, LC-MS/MS) is reported as “NQ (not quantifiable (less than assay limit of quantification of 100 ng/mL))” and the “Plasma concentration … (CV%)” value (10 mg SC, day 1 cycle 1, 6 h after dosing, n = 1, LC-MS/MS) is reported as “NQ (not quantifiable (less than assay limit of quantification of 100 ng/mL))”. For the same sequence, the “Plasma concentration … (CV%)” value (10 mg SC, day 1 cycle 1, 22 h after dosing, n = 1, LC-MS/MS) was “NQ (not quantifiable (less than assay limit of quantification of 100 ng/mL))”, the “Plasma concentration … (CV%)” value (10 mg SC, day 3 cycle 1, 5 h after dosing, n = 1, LC-MS/MS) was “NQ (not quantifiable (less than assay limit of quantification of 100 ng/mL))” and the “Plasma concentration … (CV%)” value (10 mg SC, day 18 cycle 1, 5 h after dosing, n = 1, LC-MS/MS) was “NQ (not quantifiable (less than assay limit of quantification of 100 ng/mL))”. The “Plasma concentration … (CV%)” value (20 mg SC, day 1 cycle 1, 4 h after dosing, n = 1, LC-MS/MS) was “NQ (not quantifiable (less than assay limit of quantification of 100 ng/mL))”, the “Plasma concentration … (CV%)” value (20 mg SC, day 1 cycle 1, 5 h after dosing, n = 1, LC-MS/MS) was “NQ (not quantifiable (less than assay limit of quantification of 100 ng/mL))” and the “Plasma concentration … (CV%)” value (20 mg SC, day 1 cycle 1, 6 h after dosing, n = 1, LC-MS/MS) was “NQ (not quantifiable (less than assay limit of quantification of 100 ng/mL))”. For the same sequence, the “Plasma concentration … (CV%)” value (20 mg SC, day 1 cycle 1, 22 h after dosing, n = 1, LC-MS/MS) was “NQ (not quantifiable (less than assay limit of quantification of 100 ng/mL))”, the “Plasma concentration … (CV%)” value (20 mg SC, day 3 cycle 1, 5 h after dosing, n = 1, LC-MS/MS) was “NQ (not quantifiable (less than assay limit of quantification of 100 ng/mL))” and the “Plasma concentration … (CV%)” value (20 mg SC, day 18 cycle 1, 5 h after dosing, n = 1, LC-MS/MS) was “NQ (not quantifiable (less than assay limit of quantification of 100 ng/mL))”. The “Tmax, median” value (20 mg SC, day 18 cycle 2, n = 1, plasma LC-MS/MS) was 1 h, the “Plasma concentration … (CV%)” value (40 mg SC, day 1 cycle 1, 6 h after dosing, n = 1, LC-MS/MS) was “NQ (not quantifiable (less than assay limit of quantification of 100 ng/mL))” and the “Plasma concentration … (CV%)” value (40 mg SC, day 1 cycle 1, 22 h after dosing, n = 1, LC-MS/MS) was “NQ (not quantifiable (less than assay limit of quantification of 100 ng/mL))”. The “Cmax, Gmean (CV)” value (40 mg SC, day 18 cycle 2, n = 1, plasma LC-MS/MS) was 583 ng/mL, the “Plasma concentration … (CV%)” value (80 mg SC, day 1 cycle 1, 22 h after dosing, n = 3, LC-MS/MS) was “NQ (not quantifiable (less than assay limit of quantification of 100 ng/mL))” and the “Tmax, median” value (80 mg SC, day 3 cycle 1, n = 3, plasma LC-MS/MS) was 1.5 h. The “Plasma concentration … (CV%)” value (100 mg SC, day 1 cycle 1, 22 h after dosing, n = 4, LC-MS/MS) was “NQ (not quantifiable (less than assay limit of quantification of 100 ng/mL))”, the “Plasma concentration … (CV%)” value (160 mg SC, day 1 cycle 1, 22 h after dosing, n = 3, LC-MS/MS) was “NQ (not quantifiable (less than assay limit of quantification of 100 ng/mL))” and the “Tmax, median” value (160 mg SC, day 3 cycle 1, n = 3, plasma LC-MS/MS) was 1.52 h. The “Tmax, median” value (160 mg SC, day 18 cycle 1, n = 3, plasma LC-MS/MS) was 1.5 h, the “Plasma concentration … (CV%)” value (200 mg SC, day 1 cycle 1, 22 h after dosing, n = 4, LC-MS/MS) was “NQ (not quantifiable (less than assay limit of quantification of 100 ng/mL))” and the “AUC0-t, Gmean (CV)” value (200 mg SC, day 18 cycle 2, n = 2, CV not calculated, plasma LC-MS/MS) was 5680 ng·h/mL. For the same sequence, the “Plasma concentration … (CV%)” value (300 mg SC, day 1 cycle 1, 22 h after dosing, n = 3, LC-MS/MS) was “NQ (not quantifiable (less than assay limit of quantification of 100 ng/mL))”, the “AUC0-t, Gmean (CV)” value (300 mg SC, day 18 cycle 1, n = 3, plasma LC-MS/MS) was 12,100 (6) ng.h/mL and the “Tmax, median” value (300 mg SC, day 18 cycle 2, n = 3, plasma LC-MS/MS) was 2 h. The “Day 18:day 1 AUC0-t ratio, mean ± SD” value (cycle 1, all patients) was 1.27 ± 1.32, the “Day 18:day 1 Cmax ratio, mean ± SD” value (cycle 1, all patients) was 1.25 ± 0.97 and the “Day 18:day 1 AUC0-t ratio, mean ± SD” value [1] was 0.95 ± 0.26. For the same sequence, the “Day 18:day 1 Cmax ratio, mean ± SD” value [1] was 1.03 ± 0.39, the Half-life (human, plasma, sc) was ~1.5 h and the AUC(0-t) [2] was 485 ng·h/mL. For the same sequence, the AUC(0-t) [3] was 868 ng·h/mL, the AUC(0-t) [4] was 817 ng·h/mL and the AUC(0-t) [5] was 702 ng·h/mL. It also gave an AUC(0-t) [6] of 476 ng·h/mL, an AUC(0-t) [7] of 1040 ng·h/mL and a Cmax [2] of 200 ng/mL. It also gave a Cmax [3] of 406 ng/mL, a Cmax [4] of 352 ng/mL and a Cmax [5] of 288 ng/mL. It also gave a Cmax [6] of 193 ng/mL, a Cmax [7] of 470 ng/mL and a level at 0.25 h [8] of 106 ng/mL. It also gave a level at 0.75 h [8] of 150 ng/mL, a level at 1.5 h (human, plasma, sc, 10 mg, Plasma concentration, geometric mean (CV%), 10 mg SC, day 1 cycle 1, 1.5 h after dosing, n = 1, LC-MS/MS) of 200 ng/mL and a level at 2 h (human, plasma, sc, 10 mg, Plasma concentration, geometric mean (CV%), 10 mg SC, day 1 cycle 1, 2 h after dosing, n = 1, LC-MS/MS) of 199 ng/mL. For the same sequence, the level at 3 h (human, plasma, sc, 10 mg, Plasma concentration, geometric mean (CV%), 10 mg SC, day 1 cycle 1, 3 h after dosing, n = 1, LC-MS/MS) was 153 ng/mL, the level at 0.5 h (human, plasma, sc, 10 mg, Plasma concentration, geometric mean (CV%), 10 mg SC, day 3 cycle 1, 0.5 h after dosing, n = 1, LC-MS/MS) was 406 ng/mL and the level at 1 h (human, plasma, sc, 10 mg, Plasma concentration, geometric mean (CV%), 10 mg SC, day 3 cycle 1, 1 h after dosing, n = 1, LC-MS/MS) was 325 ng/mL. For the same sequence, the level at 1.5 h (human, plasma, sc, 10 mg, Plasma concentration, geometric mean (CV%), 10 mg SC, day 3 cycle 1, 1.5 h after dosing, n = 1, LC-MS/MS) was 294 ng/mL, the level at 2 h (human, plasma, sc, 10 mg, Plasma concentration, geometric mean (CV%), 10 mg SC, day 3 cycle 1, 2 h after dosing, n = 1, LC-MS/MS) was 242 ng/mL and the level at 3.5 h (human, plasma, sc, 10 mg, Plasma concentration, geometric mean (CV%), 10 mg SC, day 3 cycle 1, 3.5 h after dosing, n = 1, LC-MS/MS) was 127 ng/mL. It also gave a level at 0.5 h (human, plasma, sc, 10 mg, Plasma concentration, geometric mean (CV%), 10 mg SC, day 18 cycle 1, 0.5 h after dosing, n = 1, LC-MS/MS) of 188 ng/mL, a level at 1 h (human, plasma, sc, 10 mg, Plasma concentration, geometric mean (CV%), 10 mg SC, day 18 cycle 1, 1 h after dosing, n = 1, LC-MS/MS) of 283 ng/mL and a level at 1.5 h (human, plasma, sc, 10 mg, Plasma concentration, geometric mean (CV%), 10 mg SC, day 18 cycle 1, 1.5 h after dosing, n = 1, LC-MS/MS) of 352 ng/mL. It also gave a level at 2 h (human, plasma, sc, 10 mg, Plasma concentration, geometric mean (CV%), 10 mg SC, day 18 cycle 1, 2 h after dosing, n = 1, LC-MS/MS) of 325 ng/mL, a level at 3.5 h (human, plasma, sc, 10 mg, Plasma concentration, geometric mean (CV%), 10 mg SC, day 18 cycle 1, 3.5 h after dosing, n = 1, LC-MS/MS) of 113 ng/mL and a level at 0.5 h (human, plasma, sc, 10 mg, Plasma concentration, geometric mean (CV%), 10 mg SC, day 18 cycle 2, 0.5 h after dosing, n = 1, LC-MS/MS) of 158 ng/mL. For the same sequence, the level at 1 h (human, plasma, sc, 10 mg, Plasma concentration, geometric mean (CV%), 10 mg SC, day 18 cycle 2, 1 h after dosing, n = 1, LC-MS/MS) was 193 ng/mL, the level at 1.5 h (human, plasma, sc, 10 mg, Plasma concentration, geometric mean (CV%), 10 mg SC, day 18 cycle 2, 1.5 h after dosing, n = 1, LC-MS/MS) was 242 ng/mL and the level at 2 h (human, plasma, sc, 10 mg, Plasma concentration, geometric mean (CV%), 10 mg SC, day 18 cycle 2, 2 h after dosing, n = 1, LC-MS/MS) was 288 ng/mL. It also gave a level at 3.5 h (human, plasma, sc, 10 mg, Plasma concentration, geometric mean (CV%), 10 mg SC, day 18 cycle 2, 3.5 h after dosing, n = 1, LC-MS/MS) of 161 ng/mL, a level at 1 h (human, plasma, sc, 10 mg, Plasma concentration, geometric mean (CV%), 10 mg SC, day 18 cycle 4, 1 h after dosing, n = 1, LC-MS/MS) of 176 ng/mL and a level at 1.5 h (human, plasma, sc, 10 mg, Plasma concentration, geometric mean (CV%), 10 mg SC, day 18 cycle 4, 1.5 h after dosing, n = 1, LC-MS/MS) of 193 ng/mL. For the same sequence, the level at 2 h (human, plasma, sc, 10 mg, Plasma concentration, geometric mean (CV%), 10 mg SC, day 18 cycle 4, 2 h after dosing, n = 1, LC-MS/MS) was 171 ng/mL, the level at 3.5 h (human, plasma, sc, 10 mg, Plasma concentration, geometric mean (CV%), 10 mg SC, day 18 cycle 4, 3.5 h after dosing, n = 1, LC-MS/MS) was 157 ng/mL and the level at 0.5 h (human, plasma, sc, 10 mg, Plasma concentration, geometric mean (CV%), 10 mg SC, day 18 cycle 6, 0.5 h after dosing, n = 1, LC-MS/MS) was 171 ng/mL. For the same sequence, the level at 1.5 h (human, plasma, sc, 10 mg, Plasma concentration, geometric mean (CV%), 10 mg SC, day 18 cycle 6, 1.5 h after dosing, n = 1, LC-MS/MS) was 470 ng/mL, the level at 2 h (human, plasma, sc, 10 mg, Plasma concentration, geometric mean (CV%), 10 mg SC, day 18 cycle 6, 2 h after dosing, n = 1, LC-MS/MS) was 403 ng/mL and the level at 3.5 h (human, plasma, sc, 10 mg, Plasma concentration, geometric mean (CV%), 10 mg SC, day 18 cycle 6, 3.5 h after dosing, n = 1, LC-MS/MS) was 179 ng/mL. It also gave a Tmax [2] of 1.45 h, a Tmax [3] of 0.5 h and a Tmax [4] of 1.58 h. The Tmax [5] was 2 h, the Tmax [6] was 1.53 h and the Tmax [7] was 1.85 h. For the same sequence, the AUC(0-t) [9] was 1040 ng·h/mL, the AUC(0-t) [10] was 1160 ng·h/mL and the AUC(0-t) [11] was 718 ng·h/mL. For the same sequence, the AUC(0-t) [12] was 1020 ng·h/mL, the Cmax [9] was 542 ng/mL and the Cmax [10] was 614 ng/mL. It also gave a Cmax [11] of 319 ng/mL, a Cmax [12] of 394 ng/mL and a level at 0.25 h [13] of 136 ng/mL. The level at 0.75 h [13] was 368 ng/mL.
